According to ChEMBL document CHEMBL5506038, “Discovery of LC-MI-3: A Potent and Orally Bioavailable Degrader of Interleukin-1 Receptor-Associated Kinase 4 for the Treatment of Inflammatory Diseases” (J Med Chem, 2024):
pIC50: −log10 of the molar value. Calls of active or inactive are those of the source. No cut-off for these calls is given here.

Key:
[1] = target: T1, Interleukin-1 receptor-associated kinase 4 (Homo sapiens, UniProt Q9NWZ3); test: Inhibition of IRAK4 (unknown origin)
T1 sequence (Q9NWZ3 whole entry): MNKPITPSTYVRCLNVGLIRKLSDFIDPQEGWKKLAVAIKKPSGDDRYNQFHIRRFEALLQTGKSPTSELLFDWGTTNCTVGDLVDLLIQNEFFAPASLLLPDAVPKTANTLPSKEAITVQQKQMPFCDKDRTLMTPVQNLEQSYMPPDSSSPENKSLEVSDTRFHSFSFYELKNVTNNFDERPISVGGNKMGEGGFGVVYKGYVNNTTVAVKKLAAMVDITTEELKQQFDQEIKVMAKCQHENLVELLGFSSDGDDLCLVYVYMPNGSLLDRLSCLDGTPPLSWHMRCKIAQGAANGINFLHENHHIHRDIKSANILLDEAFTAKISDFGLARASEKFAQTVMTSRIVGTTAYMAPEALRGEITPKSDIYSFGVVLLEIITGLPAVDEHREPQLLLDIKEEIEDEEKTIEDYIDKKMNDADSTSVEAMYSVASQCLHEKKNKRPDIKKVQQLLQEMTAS

[2] = target: T2, Protein cereblon/Interleukin-1 receptor-associated kinase 4 (Mus musculus) (UniProt Q8C7D2+Q8R4K2); test: PROTAC activity at IRAK4/CRBN in mouse RAW264.7 cells assessed as reduction in IRAK4 level at 100 nM incubated for 12 hrs by Western blot analysis relative to control; format: cell-based
[3] = target: T2, Protein cereblon/Interleukin-1 receptor-associated kinase 4 (Mus musculus); test: PROTAC activity at IRAK4/CRBN in mouse RAW264.7 cells assessed as induction of IRAK4 degradation at 25 to 2500 nM incubated for 12 hrs by Western blot analysis; format: cell-based; settings: dose 25-2500 nM
[4] = target: T2, Protein cereblon/Interleukin-1 receptor-associated kinase 4 (Mus musculus); test: PROTAC activity at IRAK4/CRBN in mouse RAW264.7 cells assessed as induction of IRAK4 degradation at 100 nM incubated for 12 hrs in presence of MG132 by Western blot analysis; format: cell-based
[5] = target: T2, Protein cereblon/Interleukin-1 receptor-associated kinase 4 (Mus musculus); test: PROTAC activity at IRAK4/CRBN in mouse RAW264.7 cells assessed as reduction in IRAK4 level at 200 nM incubated for 12 hrs by proteomic analysis; format: cell-based
[6] = target: Serine/threonine-protein kinase RIO1 (Homo sapiens) (UniProt Q9BRS2); test: Induction of RIOK1 degradation in human Caco-2 cells upto 10000 nM incubated for 12 hrs by Western blotting analysis; format: cell-based
[7] = target: Zinc finger protein Aiolos (Homo sapiens) (UniProt Q9UKT9); test: Induction of IKZF3 degradation in human THP-1 cells upto 10000 nM incubated for 12 hrs by Western blotting analysis; format: cell-based
[8] = target: MAP kinase p38 (Mus musculus) (UniProt P47811+O08911+Q9WUI1+Q9Z1B7); test: Inhibition of MAPK phosphorylation in LPS-induced mouse RAW264.7 cells at 1 uM pretreated with compound for 1 hr followed by LPS-induction and measured after 2 hrs by Western blot analysis; format: cell-based; settings: time 3.0 hrs
RAW264.7 [9] = test: Activation of NF-kappaB pathway in LPS-induced mouse RAW264.7 cells expressing EGFP at 5 uM pretreated with compound for 1 hr followed by LPS-induction and measured after 6 hrs by flow cytometry analysis; format: cell-based; settings: filed as activator, time 7.0 hrs
RAW264.7 [10] = test: Activation of NF-kappaB pathway in LPS-induced mouse RAW264.7 cells expressing EGFP at 5 uM pretreated with compound for 1 hr followed by LPS-induction and measured at 15 min by flow cytometry analysis; format: cell-based; settings: filed as activator, time 75.0 min
[11] = Half life in Sprague-Dawley rat at 20 mg/kg, po by LC-MS/MS analysis; format: ADME, organism-based; settings: in vivo
[12] = Tmax in Sprague-Dawley rat at 20 mg/kg, po by LC-MS/MS analysis; format: ADME, organism-based; settings: in vivo
[13] = Cmax in Sprague-Dawley rat at 20 mg/kg, po by LC-MS/MS analysis; format: ADME, organism-based; settings: in vivo
[14] = AUC (0 to infinity) in Sprague-Dawley rat at 2 mg/kg, iv by LC-MS/MS analysis; format: ADME, organism-based; settings: in vivo
[15] = AUC (0 to infinity) in Sprague-Dawley rat at 20 mg/kg, po by LC-MS/MS analysis; format: ADME, organism-based; settings: in vivo
[16] = Volume of distribution at steady state in Sprague-Dawley rat at 2 mg/kg, iv by LC-MS/MS analysis; format: ADME, organism-based; settings: in vivo, read-out: Vdss
[17] = Clearance in Sprague-Dawley rat at 2 mg/kg, iv by LC-MS/MS analysis; format: ADME, organism-based; settings: in vivo
[18] = Oral bioavailability in Sprague-Dawley rat at 20 mg/kg by LC-MS/MS analysis; format: ADME, organism-based; settings: in vivo
Mus musculus [19] = test: Anti-inflammatory activity against LPS-induced acute […] injury C57BL/6 mouse model assessed as reduction in TNF-alpha level in lung at 20 mg/kg, IG pretreated with compound for 12 hrs followed by LPS-induction and measured after 6 hrs by RT-PCR analysis; format: functional, organism-based; settings: time 18.0 hrs
[20] = Toxicity in C57BL/6 mouse assessed as lung damage at 20 mg/kg, IG by H and E staining based analysis; format: organism-based; settings: in vivo, po
Mus musculus [21] = test: Anti-inflammatory activity against LPS-induced acute […] injury C57BL/6 mouse model assessed as reduction in F4/80-positive macrophage in lung at 20 mg/kg, IG pretreated with compound for 12 hrs followed by LPS-induction and measured after 6 hrs by Immunohistochemical analysis; format: functional, organism-based; settings: time 18.0 hrs
RAW264.7 [22] = test: Protection against Escherichia coli-induced sepsis in mouse RAW264.7 cells assessed as reduction in TNF-alpha level at 1 uM pretreated with compound for 6 hrs followed by Escherichia coli-induction and measured after 6 hrs by RT-PCR analysis; format: functional, cell-based; settings: time 12.0 hrs
RAW264.7 [23] = test: Protection against Escherichia coli-induced sepsis in mouse RAW264.7 cells assessed as reduction in IL-6 production at 1 uM pretreated with compound for 6 hrs followed by Escherichia coli-induction and measured after 6 hrs by ELISA analysis; format: functional, cell-based; settings: time 12.0 hrs
RAW264.7 [24] = test: Protection against Escherichia coli-induced sepsis in mouse RAW264.7 cells assessed as reduction in TNF-alpha production at 1 uM pretreated with compound for 6 hrs followed by Escherichia coli-induction and measured after 6 hrs by ELISA analysis; format: functional, cell-based; settings: time 12.0 hrs
Mus musculus [25] = test: Anti-inflammatory activity in imiquimod-induced C57BL/6 mouse psoriasis model assessed as improvement in scaling at 20 mg/kg, po administered twice daily measured for 6 days; format: functional, organism-based; settings: time 6.0 day
Mus musculus [26] = test: Anti-inflammatory activity in imiquimod-induced C57BL/6 mouse psoriasis model assessed as improvement in erythema score at 20 mg/kg, po administered twice daily measured for 6 days; format: functional, organism-based; settings: time 6.0 day
Mus musculus [27] = test: Anti-inflammatory activity in imiquimod-induced C57BL/6 mouse psoriasis model assessed as reduction in keratinocyte proliferation at 20 mg/kg, po administered twice daily measured for 6 days by H and E staining based analysis; format: functional, organism-based; settings: time 6.0 day
Mus musculus [28] = test: Anti-inflammatory activity in imiquimod-induced C57BL/6 mouse psoriasis model assessed as reduction in epidermal acanthosis at 20 mg/kg, po administered twice daily measured for 6 days by H and E staining based analysis; format: functional, organism-based; settings: time 6.0 day
[29] = Toxicity in C57BL/6 mouse assessed as effect on body weight at 20 mg/kg, po measured for 6 days; format: organism-based; settings: in vivo, 144 h, time 6 day

T2 sequence (Q8C7D2 whole entry, looked up): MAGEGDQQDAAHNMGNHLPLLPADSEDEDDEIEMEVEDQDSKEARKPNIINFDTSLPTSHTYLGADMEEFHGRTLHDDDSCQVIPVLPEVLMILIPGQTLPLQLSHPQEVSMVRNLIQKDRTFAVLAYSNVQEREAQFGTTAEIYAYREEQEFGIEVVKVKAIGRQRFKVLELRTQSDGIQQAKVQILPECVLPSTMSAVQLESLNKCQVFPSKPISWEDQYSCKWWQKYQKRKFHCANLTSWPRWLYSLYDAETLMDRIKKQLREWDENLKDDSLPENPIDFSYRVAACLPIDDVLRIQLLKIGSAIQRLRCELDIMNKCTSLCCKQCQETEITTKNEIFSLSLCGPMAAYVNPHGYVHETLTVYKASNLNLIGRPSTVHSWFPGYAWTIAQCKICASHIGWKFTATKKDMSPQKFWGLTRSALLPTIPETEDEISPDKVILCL
T2 sequence (Q8R4K2 whole entry, looked up): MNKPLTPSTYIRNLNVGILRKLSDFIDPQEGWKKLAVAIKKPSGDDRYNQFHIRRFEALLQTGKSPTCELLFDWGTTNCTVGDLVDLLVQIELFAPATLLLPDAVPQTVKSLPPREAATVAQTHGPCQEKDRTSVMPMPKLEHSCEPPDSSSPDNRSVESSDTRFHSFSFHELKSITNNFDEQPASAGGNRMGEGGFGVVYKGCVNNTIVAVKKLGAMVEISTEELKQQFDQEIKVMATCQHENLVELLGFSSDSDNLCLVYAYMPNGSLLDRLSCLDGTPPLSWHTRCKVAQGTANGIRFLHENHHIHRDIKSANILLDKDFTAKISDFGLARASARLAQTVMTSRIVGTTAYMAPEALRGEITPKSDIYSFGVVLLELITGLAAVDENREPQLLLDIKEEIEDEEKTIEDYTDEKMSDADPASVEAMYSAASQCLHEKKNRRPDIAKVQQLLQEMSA
Zinc finger protein Aiolos (Homo sapiens), sequence (Q9UKT9 whole entry): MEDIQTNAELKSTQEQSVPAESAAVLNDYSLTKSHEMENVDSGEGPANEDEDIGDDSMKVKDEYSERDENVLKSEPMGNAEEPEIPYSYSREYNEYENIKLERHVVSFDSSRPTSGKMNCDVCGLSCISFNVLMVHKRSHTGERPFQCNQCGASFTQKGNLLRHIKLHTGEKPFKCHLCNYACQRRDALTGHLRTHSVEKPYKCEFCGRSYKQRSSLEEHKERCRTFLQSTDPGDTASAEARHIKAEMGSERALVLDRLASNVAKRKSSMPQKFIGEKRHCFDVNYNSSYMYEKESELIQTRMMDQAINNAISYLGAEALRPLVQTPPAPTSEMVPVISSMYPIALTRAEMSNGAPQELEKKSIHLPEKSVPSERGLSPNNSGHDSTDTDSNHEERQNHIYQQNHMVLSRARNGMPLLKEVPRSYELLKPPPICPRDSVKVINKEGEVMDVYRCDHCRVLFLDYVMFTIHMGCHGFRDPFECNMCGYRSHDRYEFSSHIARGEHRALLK
Serine/threonine-protein kinase RIO1 (Homo sapiens), sequence (Q9BRS2 whole entry): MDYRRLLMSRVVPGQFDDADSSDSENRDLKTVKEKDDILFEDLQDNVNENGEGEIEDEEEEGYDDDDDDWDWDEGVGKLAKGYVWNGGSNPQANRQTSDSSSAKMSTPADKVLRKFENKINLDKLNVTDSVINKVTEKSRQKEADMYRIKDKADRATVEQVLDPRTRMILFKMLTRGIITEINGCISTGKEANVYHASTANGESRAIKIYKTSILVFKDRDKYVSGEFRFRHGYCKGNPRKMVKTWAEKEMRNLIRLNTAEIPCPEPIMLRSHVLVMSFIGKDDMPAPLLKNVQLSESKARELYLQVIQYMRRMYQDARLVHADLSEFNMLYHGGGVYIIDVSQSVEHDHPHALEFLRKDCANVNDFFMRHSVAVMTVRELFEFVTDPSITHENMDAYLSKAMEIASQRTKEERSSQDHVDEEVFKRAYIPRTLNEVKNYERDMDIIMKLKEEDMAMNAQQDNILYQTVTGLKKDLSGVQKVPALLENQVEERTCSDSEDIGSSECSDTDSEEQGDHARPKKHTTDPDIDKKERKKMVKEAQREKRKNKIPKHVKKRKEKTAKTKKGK

pIC50 [1]: > 7.00
Emax [2]: 85%
Activity [3]: inactive
Activity [4]: Active
Activity [5]: Active
Activity [6]: inactive
Activity [7]: inactive
inhibition [8]: Active
half-life [11]: 87.2 min
Tmax [12]: 30 min
Cmax [13]: 440 ng/mL
AUC(0-inf) [14]: 1330 ng·h/mL
AUC(0-inf) [15]: 1080 ng·h/mL
Vd [16]: 0.584 L/kg
clearance [17]: 25.6 mL/min/kg
bioavailability [18]: 8.15%
SMILES: COc1cc(N2CCN(C(=O)CCOCC#Cc3ccc4c(c3)C(=O)N(C3CCC(=O)NC3=O)C4=O)CC2)ccc1NC(=O)c1cccc(-c2ccn[nH]2)n1 (centres undefined)
Activity (RAW264.7 [9]): Active
Activity (RAW264.7 [10]): Active
Activity (Mus musculus [19]): Active
Activity [20]: Non-Toxic
Activity (Mus musculus [21]): Active
Activity (RAW264.7 [22]): Active
Activity (RAW264.7 [23]): Active
Activity (RAW264.7 [24]): Active
Activity (Mus musculus [25]): Active
Activity (Mus musculus [26]): Active
Activity (Mus musculus [27]): Active
Activity (Mus musculus [28]): Active
Activity [29]: Non-Toxic
